Our source for the zone of inhibition and Activity values is ChEMBL document CHEMBL1141816, “Massarinolins A-C: new bioactive sesquiterpenoids from the aquatic fungus massarina tunicata” (1999).

In one experiment the test system is Bacillus subtilis. The experiment can be described thus: Antibacterial activity against Bacillus subtilis ATCC 6051 at 200 ug/disk by standard disk assay. The following applies: for zone of inhibition at 200 µg/disc: read-out: IZ. It counts as functional.
For the next experiment, the system named is Candida albicans. The experiment can be described thus: Antifungal activity against Candida albicans ATCC 14053 at 200 ug/disk by standard disk assay. It counts as functional, organism-based.
A further experiment concerns Staphylococcus aureus. The experiment can be described thus: Antibacterial activity against Staphylococcus aureus ATCC 29213 at 200 ug/disk by standard disk assay. The experiment is classed as functional.

Structures are written as SMILES. The source made the active and inactive calls. The calls are words filed in the database; no cut-off is given here.

In the case of `C=C1CC[C@H]2C[C@@H]1[C@@]21CO[C@]2(C=C(C)C(=O)O2)[C@H]1O` [MASSARINOLIN A], the zone of inhibition at 200 µg/disc in the experiment with Bacillus subtilis is 17 mm; in the experiment on Staphylococcus aureus (read-out: IZ), 10 mm. For the same molecule, in the experiment with Candida albicans, the outcome was inactive.

Regarding `C=C1CC[C@H]2C[C@@H]1[C@]2(CO)C[C@H](O)/C=C(\C)C(=O)O`, the outcome in the experiment on Bacillus subtilis, in the experiment on Candida albicans and in the experiment on Staphylococcus aureus was inactive.

In the case of `C/C(=C\[C@@H](O)C[C@@]12CO[C@]3(C)CC[C@H]1C[C@H]23)C(=O)O` [MASSARINOLIN B], the zone of inhibition at 200 µg/disc in the experiment on Bacillus subtilis was determined as 8 mm. In addition, the outcome in the experiment with Candida albicans was inactive.
